Data as given in patent US10583146B2, “Pharmaceutical compositions for glucocorticoid replacement therapy” (Shire ViroPharma Incorporated, priority 2004, dated 2020).

Columns and labels:
[1] = equivalent dose for systemic glucocorticoid therapy; cited from earlier work
[2] = Equivalent doses of glucocorticoids (hydrocortisone equivalents) for systemic glucocorticoid therapy; details: per 1 mg of the glucocorticoid
Procedure: The term “hydrocortisone equivalents” is used herein to define the amount in mg of a specific glucocorticoid that corresponds to 1 mg of hydrocortisone for the purpose of systemic glucocorticoid therapy as generally understood by medical practitioners. The term is based on the fact that the individual glucocorticoids have different potencies and in order to achieve a desired therapeutic effect different doses of the individual glucocorticoids are required. Equivalent doses of the glucocorticoids can be calculated based on the following table.

[3] = In vivo plasma cortisol profile in healthy volunteers with suppressed endogenous glucocorticoid secretion; set-up: species or system human
Procedure: The in vivo experiments reported herein were carried out on healthy volunteers. At 6 pm and 11 pm the day before administration of the test composition, the endogenous cortisol secretion was suppressed by oral administration of 2 mg of betamethasone.
The test composition was administered to healthy volunteers. The volunteers were in fasted state and were not allowed to take any food until noon. In the case a tablet is administered, it is ingested together with 200 ml of water. The test composition is administered between 8 am and 10 am on the day following the suppression of endogenous glucocorticoid secretion.
In vivo plasma profiles in humans, N=1 per composition
Dexamethasone suppression test, fasting state, otherwise as described in the paragraph denoted “Method”.
Two films were prepared essentially similar to Example 20—composition A. Film A contains 10 mg of hydrocortisone and film B contains 11.2 mg of hydrocortisone acetate.
The hydrocortisone compositions were tested in two human subjects after labial administration. The subjects had their endogenous glucocorticoid secretion suppressed by synthetic glucocorticoids. The plasma concentration of cortisol was monitored during 360 min after the labial administration, and the serum concentration time profiles from these two different subjects are shown in FIGS. 10 and 11.
The compositions were tested after oral administration to two human subjects (FIG. 12).

| time at which the first measured plasma concentration of cortisol was attained ([3]; Example 20 thin-layer film, 10 mg hydrocortisone, labial administration, two human subjects, FIGS. 10 and 11) | rate and extent of mucosal uptake ([3]; Example 20 thin-layer film, labial administration, two human subjects) | SMILES | Equivalent amount [1] | Hydrocortisone equivalent (1 mg of the glucocorticoid corresponds to the listed amount in mg of hydrocortisone) [2] | suitability for immediate release judged from in vivo plasma profiles ([3]; Example 18 thin-layer films, humans, N=1 per composition, fasting state, FIGS. 5-7) |
| --- | --- | --- | --- | --- | --- |
| – | – | CC(=O)OCC(=O)[C@@]1(O)CC[C@H]2[C@@H]3CCC4=CC(=O)CC[C@]4(C)[C@H]3C(=O)C[C@@]21C [Cortisone acetate] | 25 mg | 0.8 mg | – |
| 10 to 15 min | high | C[C@]12CCC(=O)C=C1CC[C@@H]1[C@@H]2[C@@H](O)C[C@@]2(C)[C@H]1CC[C@]2(O)C(=O)CO [Hydrocortisone] | 20 mg | 1 mg | – |
| – | – | C[C@@H]1C[C@H]2[C@@H]3C[C@H](F)C4=CC(=O)C=C[C@]4(C)[C@H]3[C@@H](O)C[C@]2(C)[C@@]1(O)C(=O)CO [Paramethasone] | 2 mg | 10 mg | – |
| – | – | C[C@]12C=CC(=O)C=C1CC[C@@H]1[C@@H]2[C@@H](O)C[C@@]2(C)[C@H]1CC[C@]2(O)C(=O)CO [Prednisolone] | 5 mg | 4 mg | – |
| – | – | C[C@]12C=CC(=O)C=C1CC[C@H]1[C@@H]3C[C@@H](O)[C@](O)(C(=O)CO)[C@@]3(C)C[C@H](O)[C@@]12F [Triamcinolone] | 4 mg | 5 mg | – |
| – | – | CC(=O)OCC(=O)[C@@]1(O)CC[C@H]2[C@@H]3CCC4=CC(=O)CC[C@]4(C)[C@H]3[C@@H](O)C[C@@]21C [hydrocortisone acetate] | – | – | does not seem to be suitable for an immediate release composition |
